Test system: human peripheral blood mononuclear cells (PBMC)
Test: HTS assay for small molecule immune potentiators: TNF-a production by human PBMC (sandwich ELISA)
Assay type: cell-based
Settings: human PBMC 500,000 per mL, 18 h at 37° C., secreted TNF by sandwich ELISA
Source text: Candidate small molecule immune potentiators can be identified in vitro. Compounds are screened in vitro for their ability to stimulate human peripheral blood mononuclear cells to produce cytokines (e.g. TNF-a and IL-12 p40). Apoptosis inducing small molecules may be identified having this activity. These small molecule immunopotentiators have potential utility as adjuvants and immunotherapeutics.
In an assay procedure (High Throughput Screening (HTS)) for small molecule immune potentiators (SMIPs), human peripheral blood mononuclear cells (PBMC), 500,000 per mL in RPMI 1640 medium with 10% FCS, are distributed in 96 well plates (100,000 per well) already containing 5 μM of compound in DMSO. The PBMCs are incubated for 18 h at 37° C. in 5% CO2. Their ability to produce cytokines in response to the small molecule compounds is determined using a modified sandwich ELISA.
Briefly supernatants from the PBMC cultures are assayed for secreted TNF using a primary plate bound antibody for capture followed by a secondary biotinylated anti-TNF antibody forming a sandwich. The biotinylated second antibody is then detected using streptavidin-Europium and the amount of bound europium is determined by time resolved fluorescence. Compounds are screened for their TNF inducing activity that is measured in the assay as increased Europim counts over cells incubated in RPMI medium alone. “Hits” are selected based on their TNF-inducing activity relative to an optimal dose of lipopolysaccaride LPS (1 μg/ml), a strong TNF inducer. The robustness of the assay and low backgrounds have allowed for the routine selection of hits with ˜10% of LPS activity that is normally between 5-10× background (cells alone). Selected hits are then subjected to confirmation for their ability to induce cytokines from multiple donors at decreasing concentrations. Those compounds with consistent activity at or below 5 μM are considered confirmed for the purposes of this assay. The assay is readily modified for screening for compounds effective at higher or lower concentrations.

SMILES | minimal effective concentration
O=C1c2cc(CCCCCCOP(=O)(O)O)ccc2-n2c1nc1ncccc1c2=O [Compound 1035, 6-(5,11-dioxo-5,11-dihydropyrido[2′,3′:4,5]py-rimido[1,2-a]indol-9-yl)hexyl dihydrogen phosphate] | ≤ 1.5 µM
O=C1c2cc(OC(F)(F)F)ccc2-n2c1nc1ncccc1c2=O [Compound 1036, 9-[(trifluoromethyl)oxy]pyri-do[2′,3′:4,5]pyrimido[1,2-a]indole-5,11-dione] | ≤ 1.5 µM
O=C1c2ccccc2-n2c1nc1ccccc1c2=O [Compound 1037, indolo[2,1-b]quinazoline-6,12-dione] | ≥ 20 µM
O=C1c2cc(Cl)ccc2-n2c1nc1ccccc1c2=O [Compound 1038, 8-chloroindolo[2,1-b]quinazoline-6,12-dione] | ≥ 20 µM
CCOC(=O)c1ccc2c(c1)C(=O)c1nc3ccccc3c(=O)n1-2 [Compound 1039, ethyl 6,12-dioxo-6,12-dihydroindolo[2,1-b]quinazoline-8-carboxylate] | ≥ 20 µM
O=C1c2cc(I)ccc2-n2c1nc1c(O)cccc1c2=O [Compound 1040, 4-hydroxy-8-iodoindolo[2,1-b]quinazoline-6,12-dione] | ≥ 20 µM
O=C1c2cc(I)ccc2-n2c1nc1c(Cl)cc(Cl)cc1c2=O [Compound 1041, 2,4-dichloro-8-iodoindolo[2,1-b]quinazoline-6,12-dione] | ≥ 20 µM
O=C1c2cc(I)ccc2-n2c1nc1ccc(I)cc1c2=O [Compound 1042, 2,8-diiodoindolo[2,1-b]quinazoline-6,12-dione] | ≥ 20 µM
O=C1c2cc(I)ccc2-n2c1nc1c(I)cc(I)cc1c2=O [Compound 1043, 2,4,8-triiodoindolo[2,1-b]quinazoline-6,12-dione] | ≥ 20 µM
O=C1c2cc(F)ccc2-n2c1nc1c(OCc3ccccc3)cccc1c2=O [Compound 1044, 8-fluoro-4-[(phenylmethyl)oxy]indolo [2,1-b]quinazoline-6,12-dione] | ≥ 20 µM
O=C1c2cc(Cl)ccc2-n2c1nc1cc(N3CCOCC3)ccc1c2=O [Compound 1045, 8-chloro-3-morpholin-4-ylindolo[2,1-b]quinazoline-6,12-dione] | ≥ 20 µM
O=C1c2cc(C(F)(F)F)ccc2-n2c1nc1ccccc1c2=O [Compound 1046, 8-(trifluoromethyl)indolo[2,1-b]quinazoline-6,12-dione] | ≥ 20 µM
CN(CC(=O)O)c1ccc2c(=O)n3c(nc2c1)C(=O)c1cc(Cl)ccc1-3 [Compound 1047, [(8-chloro-6,12-dioxo-6,12-dihydroindolo[2,1-b]quinazolin-3-yl)(methyl)amino]acetic acid] | ≥ 20 µM
CN(CCOC(=O)CCC(=O)O)c1ccc2c(=O)n3c(nc2c1)C(=O)c1cc(Cl)ccc1-3 [Compound 1048, 4-({2-[(8-chloro-6,12-dioxo-6,12-dihydroindolo[2,1-b]quinazolin-3-yl)(methyl)amino]ethyl}oxy)-4-oxobutanoic acid] | ≥ 20 µM
CCCCCCCC(=O)OCCN(C)c1ccc2c(=O)n3c(nc2c1)C(=O)c1cc(Cl)ccc1-3 [Compound 1049, 2-[(8-chloro-6,12-dioxo-6,12-dihydroindolo[2,1-b]quinazolin-3-yl)(methyl)amino]ethyl octanoate] | ≥ 20 µM
CN(CCO)c1ccc2c(=O)n3c(nc2c1)C(=O)c1cc(OC(F)(F)F)ccc1-3 [Compound 1050, 3-[(2-hydroxyethyl)(methyl)a-mino]-8-[(trifluoromethyl)oxy]indol o[2,1-b]quinazoline-6,12-dione] | ≥ 20 µM
O=C1c2cc(Cl)ccc2-n2c1nc1cc(SCCO)ccc1c2=O [Compound 1051, 8-chloro-3-[(2-hydroxyethyl)thio]indolo[2,1-b]quinazoline-6,12-dione] | ≥ 20 µM
CC(=O)OCCCCCCc1ccc2c(c1)C(=O)c1nc3ncccc3c(=O)n1-2 [Compound 1052, 6-(5,11-dioxo-5,11-dihydropyrido[2′,3′:4,5]py-rimido[1,2-a]indol-9-yl)hexyl acetate] | ≥ 20 µM
